# In patent US20160138077A1, “MONITORING AND ASSESSING DEACETYLASE ENZYME ACTIVITY” (THE GENERAL HOSPITAL CORPORATION, priority 2013, published 2016):
# Experiments:
# [1] = biological target: HDAC2 (Homo sapiens, UniProt Q92769); test: LCMS characterization of enzymatic deacetylation by HDAC2; type: biochemical; conditions: 5 μM probe, 12 hours at 37° C.
# Description: The enzymatic cleavage of HP-1 and HP-2 was analyzed by performing LCMS assays with HeLa nuclear extract (AnaSpec), HeLa whole cell lysate (Santa Cruz Inc.), and the following purified HDAC isoforms: 1, 2, 3, 6 and 8 (HDAC1, 3 and 8 from Cayman Chemicals and HDAC2 and 6 provided by Dr. Stephen Haggarty). Solutions containing (i) vehicle with DMSO in HDAC buffer, (ii) 5 μM probe in HDAC buffer, (iii) 5 μM probe and HDAC enzyme/HeLa nuclear extract/HeLa whole cell lysate in HDAC buffer, or (iv) 5 μM probe and HDAC enzyme/HeLa nuclear extract/HeLa whole cell lysate pre-incubated with 10 μM SAHA (Provided by Dr. Stephen Haggarty) in HDAC buffer were incubated for 12 hours at 37° C. Following incubation, a 20 μL aliquot of supernatant from each sample was analyzed by LCMS. […] For HP-1, the (M+H)^+ ion for the corresponding aldehyde (8, DHP-1) was detected, which formed following reaction of the initial imine deacetylation product with water. […] The peak area for each detected compound was measured to determine the % deacetylation of each probe. All assay samples were analyzed in triplicate. […]
# LCMS characterization of HDAC enzymatic action on HP-1 and HP-2. […] Following incubation, an aliquot of supernatant from each sample was analyzed by LCMS. […] The peak area for each detected compound was measured to determine the % deacetylation of each probe (full experimental details in Example 1).
# [2] = biological target: T1, HDAC3 (Homo sapiens, UniProt O15379); test: LCMS characterization of enzymatic deacetylation by HDAC3, incl. cleavage over time (kobs, T1/2); type: biochemical; conditions: for % HP-1 to DHP-1: 5 μM probe, 12 hours at 37° C.
# T1 construct: purchased Cayman Chemicals
# T1 sequence (O15379 whole entry): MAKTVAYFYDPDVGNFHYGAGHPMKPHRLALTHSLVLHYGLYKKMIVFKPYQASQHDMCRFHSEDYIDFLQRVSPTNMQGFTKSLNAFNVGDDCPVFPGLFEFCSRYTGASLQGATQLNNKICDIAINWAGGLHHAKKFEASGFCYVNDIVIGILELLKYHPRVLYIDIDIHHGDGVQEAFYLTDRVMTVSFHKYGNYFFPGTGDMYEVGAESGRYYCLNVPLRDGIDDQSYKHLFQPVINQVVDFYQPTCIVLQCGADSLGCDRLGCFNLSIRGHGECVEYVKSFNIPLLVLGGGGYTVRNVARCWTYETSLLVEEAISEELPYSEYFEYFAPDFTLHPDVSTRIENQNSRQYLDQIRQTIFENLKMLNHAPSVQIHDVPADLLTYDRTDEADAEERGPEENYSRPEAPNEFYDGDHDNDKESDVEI
# T1 sequence (Q9Y618 395-489 partner limits assumed): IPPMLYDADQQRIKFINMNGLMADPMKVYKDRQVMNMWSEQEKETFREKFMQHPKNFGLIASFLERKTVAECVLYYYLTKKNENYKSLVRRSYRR
# Description: The enzymatic cleavage of HP-1 and HP-2 was analyzed by performing LCMS assays with HeLa nuclear extract (AnaSpec), HeLa whole cell lysate (Santa Cruz Inc.), and the following purified HDAC isoforms: 1, 2, 3, 6 and 8 (HDAC1, 3 and 8 from Cayman Chemicals and HDAC2 and 6 provided by Dr. Stephen Haggarty). Solutions containing (i) vehicle with DMSO in HDAC buffer, (ii) 5 μM probe in HDAC buffer, (iii) 5 μM probe and HDAC enzyme/HeLa nuclear extract/HeLa whole cell lysate in HDAC buffer, or (iv) 5 μM probe and HDAC enzyme/HeLa nuclear extract/HeLa whole cell lysate pre-incubated with 10 μM SAHA (Provided by Dr. Stephen Haggarty) in HDAC buffer were incubated for 12 hours at 37° C. Following incubation, a 20 μL aliquot of supernatant from each sample was analyzed by LCMS. Deacetylation of HP-1 and 2 was confirmed by detection of the (M+H)^+.ion following positive electrospray ionization. For HP-1, the (M+H)^+ ion for the corresponding aldehyde (8, DHP-1) was detected, which formed following reaction of the initial imine deacetylation product with water. For HP-2, the […]. ion for the corresponding amine (6, DHP-2) was identified. The peak area for each detected compound was measured to determine the % deacetylation of each probe. All assay samples were analyzed in triplicate. […]
# The rate of cleavage of HP-1 by purified HDAC3 was analyzed by performing a LCMS assay. […] Following incubation, a 20 μL aliquot of supernatant from each sample was analyzed by LCMS at t=0, 1, 2, 4, 8, and 12 hours. […] For HP-1, the (M+H)^+ ion for the corresponding aldehyde (8, DHP-1) was detected, which formed following reaction of the initial imine deacetylation product with water. The peak area for each detected compound was measured to determine the % deacetylation of each probe. The observed rate constant was determined using Graphpad by plotting Ln(DHP-1 peak area) versus time. […] All assay samples were analyzed in triplicate. […]
# LCMS characterization of HDAC enzymatic action on HP-1 and HP-2. […] Following incubation, an aliquot of supernatant from each sample was analyzed by LCMS. […]
# HDAC2, sequence (Q92769 whole entry, species assumed, canonical isoform): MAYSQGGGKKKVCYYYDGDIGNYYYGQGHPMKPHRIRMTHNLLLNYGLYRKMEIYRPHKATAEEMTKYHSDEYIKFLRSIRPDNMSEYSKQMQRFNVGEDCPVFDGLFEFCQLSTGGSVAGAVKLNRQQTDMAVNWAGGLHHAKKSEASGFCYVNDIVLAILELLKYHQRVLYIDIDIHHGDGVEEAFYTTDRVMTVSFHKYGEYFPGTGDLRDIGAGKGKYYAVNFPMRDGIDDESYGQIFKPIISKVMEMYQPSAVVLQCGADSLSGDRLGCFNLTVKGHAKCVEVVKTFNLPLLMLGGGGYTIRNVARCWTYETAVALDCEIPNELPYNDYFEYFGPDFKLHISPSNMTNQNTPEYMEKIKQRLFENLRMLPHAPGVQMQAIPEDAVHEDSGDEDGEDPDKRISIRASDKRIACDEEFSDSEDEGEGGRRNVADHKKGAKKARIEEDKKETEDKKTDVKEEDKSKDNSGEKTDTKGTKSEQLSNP
smiles,measurement,setting,value
CC(=O)NC=CCCCCNC(=O)CCCCCNc1ccc([N+](=O)[O-])c2nonc12 [HP-1],% HP-1 to DHP-1,"[1]; HDAC2, +SAHA (10 μM)",0%
same,% HP-1 to DHP-1,"[1]; HDAC2, −SAHA",0%
same,kobs with HDAC3 (conversion of HP-1 to DHP-1),"[2]; 5 μM HP-1, HDAC3, 37° C., t=0-12 hours, Ln(DHP-1 peak area) versus time",3.2e-05 ± 6e-06 s⁻¹
same,% HP-1 to DHP-1,"[2]; HDAC3, +SAHA (10 μM)",0%
same,% HP-1 to DHP-1,"[2]; HDAC3, −SAHA, maximum detected conversion",93%
